Data reported in US20030078237A1, “Phenanthryl piperazinyl dicarboxylic acids as selective nmda receptor modulating agents” (priority 1999, published 2003).
Like-named read-outs stand apart in the source and are kept apart here. Blank lines part the entries; values can stand above or below the compound they belong to.

How the values were obtained:
[1] = molecular target: T1, Native NMDA receptor, Cerebellum (NR2C) (Rattus norvegicus, UniProt Q00961); assay: quantitative receptor autoradiography of [3H]-glutamate labeled native NMDA receptors, cerebellum NR2C; assay type: binding
T1 construct: Native NMDA Receptor Potency; from tissue; host or cells: rat brain sections, cerebellum
Protocol: (§1) PPDA (50 μM) also had no effect on depolarizations following administration of (1S,3R)-1-amino-1,3-cyclopentane dicarboxylic acid (ACPD; 30 μM). APCD is a Group I metabotropic glutamate (mGlu) receptor agonist. The recited values were determined by using quantitative receptor autoradiography of [^3H]-glutamate labeled NMDA receptors in rat brain tissue sections.
(§2) The potency of PPDA for native NMDA receptors was also investigated in a Xenopus oocyte system.

NR1/NR2C [2] = molecular target: T2, NR1/NR2C (Rattus norvegicus, UniProt P35439+Q00961); assay: two-microelectrode voltage clamp of recombinant NMDA receptors in Xenopus oocytes, NR1/NR2C; assay type: cell-based
T2 construct: expressed in transfected cells; host or cells: Xenopus oocytes injected with in vitro transcribed RNA
Protocol: (§3) RNA translation and transcription in Xenopus oocytes and electrophysiological recordings were performed as previously described (Monaghan D T, Larson H (1997) J Pharmacol Exp Ther 280:614 -620). Plasmids were linearized with NotI (NR1a), EcoRI (NR2A, NR2C, and NR2D), or SalI (NR2B) and transcribed in vitro using the mMessage mMachine RNA polymerase transcription kit (Ambion, Austin, Tex.). NR1 a was mixed 1:3 with NR2A, NR2B, NR2C, or NR2D RNA, and 2-50 ng of this mixture was injected into oocytes. Agonist-evoked responses were measured using a standard two-microelectrode voltage clamp (model OC-725B Oocyte Clamp; Warner Instruments, Hamden, Conn.) at a holding potential of −60 mV. Glutamate (10 μM) and glycine (10 μM) were applied until stable plateau responses were obtained; (±)-cis-1-(phenanthren-2-yl-carbonyl)-piperazine-2,3-dicarboxylic acid (PPDA) (0.1, 0.3, 1, 3, 10, or 30 μM) was then applied until steady-state blockade was obtained, followed by antagonist washout and full agonist responses. Current responses were captured and analyzed with AxoData (Axon Instruments, Foster City, Calif.) and GraphPad Prism (ISI Software, San Diego, Calif.) software. Ki values were corrected for agonist affinity according to the Cheng-Prusoff equation. Data in Table 3 are expressed as mean Kl±SEM. […]

[3] = system: AMPA subtype of glutamate receptors; assay: AMPA-induced depolarizations on neonatal rat motoneurones; assay type: cell-based; conditions: PPDA 5 μM, AMPA 6 μM
Protocol: (§4) Hemisected neonatal rat spinal cords (Evans and Watkins, European Journal of Pharmacology, 50: 123-129, 1978) were isolated and wire electrodes were placed under the exposed ventral roots. The preparation was superfused with standard Ringers (containing in mM: NaCl 118, NaHCO3 25, KCl 3, CaCl2 2.5, D-glucose 12 and gassed with 95% O2/5% CO2). To record agonist-induced responses, 0.1 μM tetrodotoxin was included to block synaptic transmission and associated depolarizations. Agonist (N-methyl-D-aspartate (NMDA)) was superfused for 60-120 seconds at a rate of 1 ml/minute. The relative positive potentials recorded by the distal (to spinal cord) wire electrode compared to the proximal electrode was taken as an indication of motor neuron cell body depolarization. Antagonism of agonist-induced responses was observed by co-application of the antagonist PPDA.
(§5) AMPA and kainate are protypical agonists which show selectivity for, and predominantly activate, the AMPA and kainate subtypes of glutamate receptors. In additional assays, PPDA was tested at a concentration of 5 μM (which is approximately 20 times the Kd value for the antagonism of NMDA receptors) as an antagonist of AMPA (6 μM)-, kainate (50 μM)- and NMDA (50 μM)-induced depolarizations (approximate EC50 concentrations used) on neonatal rat motoneurones.

NR1/NR2D [4] = molecular target: T3, NR1/NR2D (Rattus norvegicus, UniProt P35439+Q62645); assay: two-microelectrode voltage clamp of recombinant NMDA receptors in Xenopus oocytes, NR1/NR2D; assay type: cell-based
T3 construct: expressed in transfected cells; host or cells: Xenopus oocytes injected with in vitro transcribed RNA
T3 sequence (Q62645 28-1323, other chains not shown): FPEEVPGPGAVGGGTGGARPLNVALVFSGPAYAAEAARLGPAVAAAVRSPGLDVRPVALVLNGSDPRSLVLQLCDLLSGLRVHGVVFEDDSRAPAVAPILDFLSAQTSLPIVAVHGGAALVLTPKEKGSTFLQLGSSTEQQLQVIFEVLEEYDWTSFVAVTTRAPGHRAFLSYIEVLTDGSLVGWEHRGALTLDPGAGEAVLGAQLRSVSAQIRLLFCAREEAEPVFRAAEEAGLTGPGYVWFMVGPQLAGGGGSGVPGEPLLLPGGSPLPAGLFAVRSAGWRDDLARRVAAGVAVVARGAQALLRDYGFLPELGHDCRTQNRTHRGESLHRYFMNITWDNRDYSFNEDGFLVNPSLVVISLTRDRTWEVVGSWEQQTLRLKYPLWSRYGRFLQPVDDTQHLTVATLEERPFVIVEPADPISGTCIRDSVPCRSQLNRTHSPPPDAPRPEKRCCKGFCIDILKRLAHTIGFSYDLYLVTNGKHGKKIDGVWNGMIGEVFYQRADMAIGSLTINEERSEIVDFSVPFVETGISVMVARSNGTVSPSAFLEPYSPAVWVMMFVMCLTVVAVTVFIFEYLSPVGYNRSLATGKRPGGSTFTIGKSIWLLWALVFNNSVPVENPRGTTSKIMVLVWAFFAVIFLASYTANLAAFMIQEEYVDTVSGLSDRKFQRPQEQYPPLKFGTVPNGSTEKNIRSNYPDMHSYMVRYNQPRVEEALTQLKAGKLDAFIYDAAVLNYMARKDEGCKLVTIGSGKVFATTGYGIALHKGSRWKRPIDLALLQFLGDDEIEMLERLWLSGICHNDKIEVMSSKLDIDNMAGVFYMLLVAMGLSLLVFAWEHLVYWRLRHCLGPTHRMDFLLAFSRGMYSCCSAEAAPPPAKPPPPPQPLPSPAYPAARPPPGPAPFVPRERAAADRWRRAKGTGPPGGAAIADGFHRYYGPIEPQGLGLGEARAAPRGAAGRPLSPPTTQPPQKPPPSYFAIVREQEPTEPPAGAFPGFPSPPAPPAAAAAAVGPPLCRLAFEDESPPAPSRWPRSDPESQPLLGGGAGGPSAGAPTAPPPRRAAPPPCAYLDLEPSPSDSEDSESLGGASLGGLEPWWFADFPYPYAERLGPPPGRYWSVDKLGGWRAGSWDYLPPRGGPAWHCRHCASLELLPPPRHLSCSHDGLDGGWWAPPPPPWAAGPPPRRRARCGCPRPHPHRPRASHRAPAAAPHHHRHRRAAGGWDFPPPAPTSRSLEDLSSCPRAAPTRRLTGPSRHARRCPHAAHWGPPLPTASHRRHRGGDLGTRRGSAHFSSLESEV
Protocol: as §3

[5] = system: native non-NMDA glutamate receptors ([3H]kainate binding); assay: autoradiography, [3H]kainate binding; conditions: PPDA 10 μM; 25 nM [3H]kainate; n=3
native AMPA receptors = assay: autoradiography, [3H]CNQX binding to native AMPA receptors; conditions: PPDA 10 μM; 100 nM [3H]CNQX; n=3
[6] = molecular target: T4, Native NMDA receptor, Medial Striatum (NR2B) (Rattus norvegicus, UniProt Q00960); assay: quantitative receptor autoradiography of [3H]-glutamate labeled native NMDA receptors, medial striatum; assay type: binding
T4 construct: Native NMDA Receptor Potency; from tissue; host or cells: rat brain sections, medial striatum
Protocol: as §1, §2

[7] = molecular target: T5, Native NMDA receptor, Cerebellum (NR2A) (Rattus norvegicus, UniProt Q00959); assay: quantitative receptor autoradiography of [3H]-glutamate labeled native NMDA receptors, cerebellum NR2A; assay type: binding
T5 construct: Native NMDA Receptor Potency; from tissue; host or cells: rat brain sections, cerebellum
Protocol: as §1, §2

[8] = system: Group I metabotropic glutamate (mGlu) receptor; assay: ACPD-induced depolarizations on neonatal rat motoneurones; assay type: cell-based; conditions: PPDA 50 μM; ACPD 30 μM
Protocol: as §4, §1

NMDA receptors = assay: NMDA-induced depolarizations of motoneurones, hemisected neonatal rat spinal cord; assay type: cell-based
Protocol: as §4, §5

[9] = molecular target: Native NMDA receptor, Midline thalamus (NR2B/NR2D); assay: quantitative receptor autoradiography of [3H]-glutamate labeled native NMDA receptors, midline thalamus; assay type: binding; conditions: [3H]-glutamate autoradiography, rat brain sections; read-out: Ki, native NMDA receptor potency, Midline thalamus (NR2B/NR2D)
Protocol: as §1, §2

[10] = system: kainate subtype of glutamate receptors; assay: kainate-induced depolarizations on neonatal rat motoneurones; assay type: cell-based; conditions: PPDA 5 μM, kainate 50 μM
Protocol: as §4, §5

NR1/NR2B [11] = molecular target: T6, NR1/NR2B (Rattus norvegicus, UniProt P35439+Q00960); assay: two-microelectrode voltage clamp of recombinant NMDA receptors in Xenopus oocytes, NR1/NR2B; assay type: cell-based
T6 construct: expressed in transfected cells; host or cells: Xenopus oocytes injected with in vitro transcribed RNA
T6 sequence (Q00960 27-1482, other chains not shown): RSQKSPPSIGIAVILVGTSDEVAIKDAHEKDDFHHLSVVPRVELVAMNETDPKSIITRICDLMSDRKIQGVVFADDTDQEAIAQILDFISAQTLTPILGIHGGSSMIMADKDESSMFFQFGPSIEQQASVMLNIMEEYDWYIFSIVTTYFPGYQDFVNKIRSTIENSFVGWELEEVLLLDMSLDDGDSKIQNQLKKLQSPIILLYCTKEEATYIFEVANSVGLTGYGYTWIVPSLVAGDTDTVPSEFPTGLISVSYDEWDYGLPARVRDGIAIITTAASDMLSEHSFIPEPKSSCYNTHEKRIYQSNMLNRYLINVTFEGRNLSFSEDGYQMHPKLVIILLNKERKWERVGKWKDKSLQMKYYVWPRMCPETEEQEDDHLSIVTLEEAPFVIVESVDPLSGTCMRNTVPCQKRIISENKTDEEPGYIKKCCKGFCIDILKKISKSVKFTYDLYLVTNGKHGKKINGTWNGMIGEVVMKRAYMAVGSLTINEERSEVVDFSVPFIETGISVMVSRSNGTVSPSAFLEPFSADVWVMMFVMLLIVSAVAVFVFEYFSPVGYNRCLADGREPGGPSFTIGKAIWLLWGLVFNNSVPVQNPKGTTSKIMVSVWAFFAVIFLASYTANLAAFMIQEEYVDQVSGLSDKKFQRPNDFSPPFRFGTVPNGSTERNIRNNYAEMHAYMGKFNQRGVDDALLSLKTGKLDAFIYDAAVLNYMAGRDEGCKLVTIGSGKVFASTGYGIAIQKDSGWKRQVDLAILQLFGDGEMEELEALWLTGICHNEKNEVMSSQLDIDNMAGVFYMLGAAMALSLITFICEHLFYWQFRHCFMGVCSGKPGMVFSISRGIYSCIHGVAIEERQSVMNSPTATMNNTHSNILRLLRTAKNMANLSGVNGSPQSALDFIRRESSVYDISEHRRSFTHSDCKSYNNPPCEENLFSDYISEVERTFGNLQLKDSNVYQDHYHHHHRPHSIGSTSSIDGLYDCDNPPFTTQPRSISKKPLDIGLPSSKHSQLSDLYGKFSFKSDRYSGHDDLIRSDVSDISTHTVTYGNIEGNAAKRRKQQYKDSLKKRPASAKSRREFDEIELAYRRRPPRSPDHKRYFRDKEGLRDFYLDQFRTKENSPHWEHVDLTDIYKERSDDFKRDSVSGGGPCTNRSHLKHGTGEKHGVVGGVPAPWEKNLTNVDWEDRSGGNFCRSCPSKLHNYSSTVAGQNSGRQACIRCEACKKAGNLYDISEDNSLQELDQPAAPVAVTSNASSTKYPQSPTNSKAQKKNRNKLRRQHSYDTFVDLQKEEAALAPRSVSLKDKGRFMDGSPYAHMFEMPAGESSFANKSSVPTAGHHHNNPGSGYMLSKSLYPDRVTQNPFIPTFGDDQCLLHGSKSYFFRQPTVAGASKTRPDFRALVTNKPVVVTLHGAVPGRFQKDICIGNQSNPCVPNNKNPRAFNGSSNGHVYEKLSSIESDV
Protocol: as §3

NR1/NR2D [12] = molecular target: T7, NR1/NR2D (Rattus norvegicus, UniProt Q62645); conditions: recombinant, Xenopus oocytes; from Buller and Monaghan 1997, mean +/- SEM, n=4-6; cited from earlier work
T7 construct: expressed in transfected cells; host or cells: Xenopus oocytes injected with in vitro transcribed RNA
T7 sequence (Q62645 28-1323, other chains not shown): as the sequence (Q62645 28-1323, other chains not shown) above

NR1/NR2A [13] = molecular target: T8, NR1/NR2A (Rattus norvegicus, UniProt Q00959); conditions: recombinant, Xenopus oocytes; from Buller and Monaghan 1997, mean +/- SEM, n=4-6; cited from earlier work
T8 construct: expressed in transfected cells; host or cells: Xenopus oocytes injected with in vitro transcribed RNA
T8 sequence (Q00959 23-1464, other chains not shown): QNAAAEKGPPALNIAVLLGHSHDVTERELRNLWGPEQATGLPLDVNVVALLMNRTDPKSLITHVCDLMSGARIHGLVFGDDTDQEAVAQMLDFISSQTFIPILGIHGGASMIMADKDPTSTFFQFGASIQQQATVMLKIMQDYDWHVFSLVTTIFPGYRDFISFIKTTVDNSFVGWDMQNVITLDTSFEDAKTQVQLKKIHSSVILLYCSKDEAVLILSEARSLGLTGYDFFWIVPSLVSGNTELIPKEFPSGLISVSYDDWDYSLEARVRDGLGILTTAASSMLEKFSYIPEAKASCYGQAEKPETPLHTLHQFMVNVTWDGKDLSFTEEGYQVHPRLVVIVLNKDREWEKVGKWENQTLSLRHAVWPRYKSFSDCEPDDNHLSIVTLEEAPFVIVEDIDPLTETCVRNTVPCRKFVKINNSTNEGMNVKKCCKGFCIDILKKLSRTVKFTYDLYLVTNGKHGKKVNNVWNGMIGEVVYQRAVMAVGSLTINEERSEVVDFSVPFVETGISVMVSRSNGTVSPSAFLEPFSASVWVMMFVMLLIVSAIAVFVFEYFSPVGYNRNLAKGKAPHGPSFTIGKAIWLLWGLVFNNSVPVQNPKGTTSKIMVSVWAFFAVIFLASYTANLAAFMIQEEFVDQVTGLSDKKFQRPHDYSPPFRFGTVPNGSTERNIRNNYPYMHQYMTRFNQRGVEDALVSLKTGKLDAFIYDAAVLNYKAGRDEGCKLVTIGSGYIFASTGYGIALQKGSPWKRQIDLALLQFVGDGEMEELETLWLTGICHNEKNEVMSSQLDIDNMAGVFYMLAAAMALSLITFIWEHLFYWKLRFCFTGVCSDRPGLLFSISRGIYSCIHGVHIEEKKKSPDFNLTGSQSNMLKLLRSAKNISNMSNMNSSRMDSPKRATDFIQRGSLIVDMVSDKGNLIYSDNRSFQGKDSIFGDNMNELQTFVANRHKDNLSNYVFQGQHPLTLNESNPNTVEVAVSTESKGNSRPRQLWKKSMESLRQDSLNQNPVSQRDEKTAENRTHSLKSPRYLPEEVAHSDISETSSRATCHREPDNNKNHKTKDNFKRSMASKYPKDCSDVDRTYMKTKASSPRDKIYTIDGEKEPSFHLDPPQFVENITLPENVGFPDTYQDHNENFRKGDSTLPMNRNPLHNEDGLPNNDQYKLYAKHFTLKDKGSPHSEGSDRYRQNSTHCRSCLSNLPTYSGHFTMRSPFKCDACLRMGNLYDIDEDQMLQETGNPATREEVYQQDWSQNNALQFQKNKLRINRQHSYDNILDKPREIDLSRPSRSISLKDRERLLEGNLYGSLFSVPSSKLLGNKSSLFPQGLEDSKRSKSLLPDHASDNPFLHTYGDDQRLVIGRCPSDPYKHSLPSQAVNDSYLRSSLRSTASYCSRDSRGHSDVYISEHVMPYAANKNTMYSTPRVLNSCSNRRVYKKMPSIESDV

NR1/NR2C [14] = molecular target: T9, NR1/NR2C (Rattus norvegicus, UniProt Q00961); conditions: recombinant, Xenopus oocytes; from Buller and Monaghan 1997, mean +/- SEM, n=4-6; cited from earlier work
T9 construct: expressed in transfected cells; host or cells: Xenopus oocytes injected with in vitro transcribed RNA

NR1/NR2B [15] = molecular target: T10, NR1/NR2B (Rattus norvegicus, UniProt Q00960); conditions: recombinant, Xenopus oocytes; from Buller and Monaghan 1997, mean +/- SEM, n=4-6; cited from earlier work
T10 construct: expressed in transfected cells; host or cells: Xenopus oocytes injected with in vitro transcribed RNA

NR1/NR2A [16] = molecular target: T11, NR1/NR2A (Rattus norvegicus, UniProt P35439+Q00959); assay: two-microelectrode voltage clamp of recombinant NMDA receptors in Xenopus oocytes, NR1/NR2A; assay type: cell-based; conditions: NR1a co-expressed in Xenopus oocytes, mean +/- SEM
T11 construct: expressed in transfected cells; host or cells: Xenopus oocytes injected with in vitro transcribed RNA
Protocol: as §3

Structure (SMILES): O=C(O)[C@H]1NCCN(C(=O)c2ccc3c(ccc4ccccc43)c2)[C@H]1C(=O)O (racemic) [PPDA, (±)-cis-1-(Phenanthrene-2-ylcarbonyl)Piperazine-2,3-Dicarboxylic Acid]
Ki [1]: 390 nM | Ki (NR1/NR2C [2]): 70 nM | antagonism of AMPA-induced depolarizations [3]: 15% | Ki (NR1/NR2D [4]): 110 nM | inhibition of [3H]kainate binding [5]: 9.3±6.7% | inhibition of [3H]CNQX binding to native AMPA receptors (native AMPA receptors): 44.6±1.3% | Ki [6]: 540 nM | Ki [7]: 7200 nM | effect on ACPD-induced depolarizations [8]: no effect | antagonism of NMDA-induced depolarizations (NMDA receptors; PPDA 5 μM, NMDA 50 μM, neonatal rat motoneurones): 88% | Kd (NMDA receptors; neonatal rat spinal cord, competitive antagonist, read-out: affinity (Kd), Schild analysis of NMDA-induced depolarizations): 247 nM | potency as antagonist of NMDA-induced depolarizations relative to CPP-ene (NMDA receptors; spinal cord): as potent as CPP-ene | Ki [9]: 310 nM | antagonism of kainate-induced depolarizations [10]: 21% | Ki (NR1/NR2B [11]): 350 nM

Structure (SMILES): O=C(O)C1CN(CC=CP(=O)(O)O)CCN1 (stereo not drawn) [CPP-ene, 4-(3-phosphonoprop-2-enyl)piperazine-2-carboxylic acid]
Ki (NR1/NR2D [12]): 1840 nM | Ki (NR1/NR2A [13]): 110 nM | Ki (NR1/NR2C [14]): 1460 nM | Ki (NR1/NR2B [15]): 140 nM

Structure (SMILES): N[C@H](CCCP(=O)(O)O)C(=O)O [D-AP5]
Ki (NR1/NR2D [12]): 3710 nM | Ki (NR1/NR2A [13]): 280 nM | Ki (NR1/NR2C [14]): 1640 nM | Ki (NR1/NR2B [15]): 460 nM

Ki (NR1/NR2C [2]; recombinant, NR1a co-expressed in Xenopus oocytes, mean +/- SEM, read-out: NR1/NR2C Ki): 8980 nM | Ki (NR1/NR2D [4]; recombinant, NR1a co-expressed in Xenopus oocytes, mean +/- SEM, read-out: NR1/NR2D Ki): 4290 nM | Ki (NR1/NR2B [11]; recombinant, NR1a co-expressed in Xenopus oocytes, mean +/- SEM, read-out: NR1/NR2B Ki): 5010 nM | Ki (NR1/NR2A [16]): 15800 nM
Structure (SMILES): O=C(O)C1NCCN(C(=O)c2ccc(-c3ccccc3)cc2)C1C(=O)O (stereo not drawn) [PBPD, 1-(4-phenylbenzoyl)-piperazine-2,3-dicarboxylic acid, reference compound]
